The target of assay [1] is 6-phosphofructo-2-kinase/fructose-2,6-bisphosphatase 3 (Homo sapiens, UniProt Q16875). The assay can be described thus: Inhibition of PFKFB3 (unknown origin).
Assay [2] addresses T1, Pyruvate kinase PKM (Homo sapiens, UniProt P14618). Briefly: Activation of pyruvate kinase PKM2 in human A549 cells. Format: cell-based.
The target in assay [3] is T1, Pyruvate kinase PKM. Briefly: Activation of pyruvate kinase PKM2 (unknown origin).
Assay [4] has as its target Alpha-enolase (Homo sapiens, UniProt P06733). The assay can be described thus: Inhibition of ENO1 (unknown origin).
Assay [5] deals with T2, Monocarboxylate transporter 1 (Homo sapiens, UniProt P53985).
T2 sequence (P53985 whole entry): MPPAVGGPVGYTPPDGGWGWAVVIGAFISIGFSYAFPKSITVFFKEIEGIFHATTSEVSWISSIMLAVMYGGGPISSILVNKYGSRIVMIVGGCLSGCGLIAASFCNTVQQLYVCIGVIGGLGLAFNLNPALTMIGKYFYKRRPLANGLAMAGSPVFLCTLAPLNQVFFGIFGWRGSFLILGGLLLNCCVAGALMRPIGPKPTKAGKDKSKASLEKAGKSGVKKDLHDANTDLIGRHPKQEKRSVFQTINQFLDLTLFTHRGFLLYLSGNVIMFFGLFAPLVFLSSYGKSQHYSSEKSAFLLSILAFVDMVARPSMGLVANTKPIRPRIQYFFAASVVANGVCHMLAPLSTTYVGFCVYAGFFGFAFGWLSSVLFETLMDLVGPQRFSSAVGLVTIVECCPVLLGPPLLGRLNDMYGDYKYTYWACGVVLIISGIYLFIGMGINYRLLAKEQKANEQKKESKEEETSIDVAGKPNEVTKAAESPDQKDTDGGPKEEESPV
Briefly: Binding affinity to MCT1 (unknown origin).

The nature of assay [6]: Antiproliferative activity against human MIAPaCa2 cells assessed as inhibition of cell proliferation. The class given is functional, cell-based. The settings on record: MIA PaCa-2.
Assay [7] is described as follows: Growth inhibition of VHL-positive human RCC4/VHL cells. The class given is functional, cell-based.
The nature of assay [8]: Growth inhibition of VHL deficient human RCC4 cells. The class given is functional, cell-based.
In assay [9] the target is T3, Hexokinase-2 (Homo sapiens, UniProt P52789).
T3 sequence (P52789 whole entry): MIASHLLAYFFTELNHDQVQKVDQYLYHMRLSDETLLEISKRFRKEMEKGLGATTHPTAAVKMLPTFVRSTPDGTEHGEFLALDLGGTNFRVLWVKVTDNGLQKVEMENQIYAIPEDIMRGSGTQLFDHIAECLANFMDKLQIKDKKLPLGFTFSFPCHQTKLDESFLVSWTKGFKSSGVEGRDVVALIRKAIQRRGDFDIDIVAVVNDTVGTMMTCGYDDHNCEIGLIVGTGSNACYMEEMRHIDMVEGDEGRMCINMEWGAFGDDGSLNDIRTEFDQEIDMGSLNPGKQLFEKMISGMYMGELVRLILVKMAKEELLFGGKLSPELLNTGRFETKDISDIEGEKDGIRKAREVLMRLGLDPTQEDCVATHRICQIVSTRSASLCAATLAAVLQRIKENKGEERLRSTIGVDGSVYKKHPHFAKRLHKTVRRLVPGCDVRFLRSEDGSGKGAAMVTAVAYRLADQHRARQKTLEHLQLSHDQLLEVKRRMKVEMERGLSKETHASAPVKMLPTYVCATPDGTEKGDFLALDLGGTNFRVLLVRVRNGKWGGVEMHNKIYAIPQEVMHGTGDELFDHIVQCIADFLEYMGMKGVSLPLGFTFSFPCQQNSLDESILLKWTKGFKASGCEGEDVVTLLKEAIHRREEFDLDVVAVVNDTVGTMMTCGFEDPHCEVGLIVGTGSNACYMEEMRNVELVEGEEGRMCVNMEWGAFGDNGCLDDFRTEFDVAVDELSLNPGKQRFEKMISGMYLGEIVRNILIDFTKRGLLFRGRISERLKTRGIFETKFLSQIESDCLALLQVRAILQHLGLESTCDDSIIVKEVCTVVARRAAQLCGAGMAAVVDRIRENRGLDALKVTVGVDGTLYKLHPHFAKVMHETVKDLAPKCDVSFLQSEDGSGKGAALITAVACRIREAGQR
The assay can be described thus: Inhibition of hexokinase 2 (unknown origin).

Assay [10] in a line: Growth inhibition of human H1299 cells. The class given is functional, NCI-H1299.
For assay [11], the system named is A549. The assay can be described thus: Antitumor activity against human A549 cells in in-vivo xenograft model assessed as reduction in tumor volume at 10 mg/kg/day, ip. Format: functional. The settings on record: route intraperitoneal. For orientation: A xenograft is tissue or cells of one species grown in another, often human tumour cells in immunodeficient mice.

Assay [12] can be described thus: Cytotoxicity against human H1299 cells assessed as reduction in cell viability. The class given is functional, cell-based. The settings on record: NCI-H1299.
The species named for assay [13] is Homo sapiens. The assay can be described thus: Inhibition of glucose transporter GLUT (unknown origin) by standard glucose uptake assay. The settings on record: concentration not given here.

Where only a bound is given, the exact number is not on record here.

The text below walks through data of ChEMBL document CHEMBL3351282, “An update on therapeutic opportunities offered by cancer glycolytic metabolism” (Bioorg Med Chem Lett, 2014).

T1 sequence (P14618 whole entry): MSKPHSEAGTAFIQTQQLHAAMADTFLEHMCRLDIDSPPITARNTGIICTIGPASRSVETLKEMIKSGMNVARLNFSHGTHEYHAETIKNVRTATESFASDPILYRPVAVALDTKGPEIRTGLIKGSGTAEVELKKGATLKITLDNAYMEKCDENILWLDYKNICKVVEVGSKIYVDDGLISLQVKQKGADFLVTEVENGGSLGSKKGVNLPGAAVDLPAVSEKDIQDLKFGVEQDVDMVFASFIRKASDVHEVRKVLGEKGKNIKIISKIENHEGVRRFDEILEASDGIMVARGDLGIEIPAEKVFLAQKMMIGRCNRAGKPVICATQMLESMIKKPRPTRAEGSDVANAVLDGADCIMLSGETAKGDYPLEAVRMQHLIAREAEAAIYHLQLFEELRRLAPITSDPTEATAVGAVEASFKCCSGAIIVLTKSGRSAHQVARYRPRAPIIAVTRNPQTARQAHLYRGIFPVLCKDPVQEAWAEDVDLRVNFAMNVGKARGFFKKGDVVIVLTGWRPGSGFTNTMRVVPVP
6-phosphofructo-2-kinase/fructose-2,6-bisphosphatase 3, sequence (Q16875 whole entry): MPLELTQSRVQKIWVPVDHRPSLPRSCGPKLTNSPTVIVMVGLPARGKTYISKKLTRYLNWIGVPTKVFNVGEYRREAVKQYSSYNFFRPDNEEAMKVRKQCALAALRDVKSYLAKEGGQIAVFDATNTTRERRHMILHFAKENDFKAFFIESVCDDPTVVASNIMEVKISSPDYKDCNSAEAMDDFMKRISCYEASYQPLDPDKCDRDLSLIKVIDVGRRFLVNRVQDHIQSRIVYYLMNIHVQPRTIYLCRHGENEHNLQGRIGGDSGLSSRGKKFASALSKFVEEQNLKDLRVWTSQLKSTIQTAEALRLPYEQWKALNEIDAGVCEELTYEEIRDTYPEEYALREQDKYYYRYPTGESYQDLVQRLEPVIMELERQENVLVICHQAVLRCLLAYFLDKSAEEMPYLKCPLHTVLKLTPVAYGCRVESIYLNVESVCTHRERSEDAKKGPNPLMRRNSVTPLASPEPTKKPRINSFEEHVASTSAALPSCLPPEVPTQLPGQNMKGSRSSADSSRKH
Alpha-enolase, sequence (P06733 whole entry): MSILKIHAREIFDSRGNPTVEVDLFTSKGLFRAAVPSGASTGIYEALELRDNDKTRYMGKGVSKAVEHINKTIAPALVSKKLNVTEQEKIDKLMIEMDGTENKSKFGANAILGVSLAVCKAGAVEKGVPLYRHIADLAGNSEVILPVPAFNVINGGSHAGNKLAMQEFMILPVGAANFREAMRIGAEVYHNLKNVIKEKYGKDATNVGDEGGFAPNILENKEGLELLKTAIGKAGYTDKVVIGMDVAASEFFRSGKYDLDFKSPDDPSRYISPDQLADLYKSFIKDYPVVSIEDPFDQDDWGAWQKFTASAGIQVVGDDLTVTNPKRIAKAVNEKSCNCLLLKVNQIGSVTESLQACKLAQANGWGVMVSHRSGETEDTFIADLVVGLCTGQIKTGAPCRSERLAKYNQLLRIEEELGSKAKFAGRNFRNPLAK

A word on the IC50: it is the point on the concentration scale where inhibition reaches its midpoint. In turn, `O=C(/C=C/c1cccnc1)c1ccncc1` came in with an IC50 in assay [1] of 22900 nM. Broadly, the AC50 is the midpoint of the concentration-response curve, whichever way the signal moves. A high value points to activity only at high concentration. `COc1ccccc1N1CCN(C(=O)c2ccc(NS(=O)(=O)c3cccc4cccnc34)cc2)CC1`: the concentration at half-maximal activity (AC50) in assay [2] stood at 45 nM; in [3] it was 17 nM. In assay [4], `NCCOCCOCCNC(=O)Cc1ccc(Nc2nc(NCc3ccc(F)cc3)nc(NCC3CCCCC3)n2)cc1` displayed a 50% inhibitory concentration (IC50) of 576 nM. What is called Kd is the constant that tells how readily two partners part at equilibrium. As to `Cc1[nH]nc(C(F)(F)F)c1Cc1sc2c(c1C(=O)N1C[C@](C)(O)CO1)c(=O)n(C)c(=O)n2C(C)C` [AZD3965], binding in assay [5] was put at a Kd of 1.6 nM. Compound `CS(=O)(=O)N1CCc2cc(S(=O)(=O)c3ccc4c(c3)OCCO4)ccc21` displayed an AC50 in assay [3] of 45 nM.

The term EC50 denotes the concentration needed to bring the measured effect to its halfway point. With `O=C1CC(c2ccc(N3CCOCC3)cc2)(c2ccsc2)NC(=O)C1Sc1ccccc1Cl` (stereo not given), in assay [6], the concentration for a half-maximal effect (EC50) worked out at 250 nM. For `NCCOCCOCCOCCOCCOCCOCCCc1ccc(S(=O)(=O)NCc2ccc(C(=O)Nc3cccnc3)cc2)cc1`, the figures for the IC50 in assay [7] and in assay [8] were > 40000 nM and 7900 nM, respectively. On to `O=C(/C=C/c1ccc2ccccc2n1)c1ccncc1`, for which 207 nM corresponded to half-maximal inhibition in assay [1] (IC50).

As to `Cc1ccc(S(=O)(=O)NC[C@H]2O[C@@H](O)[C@H](NC(=O)/C=C/c3ccc(Cl)c(Cl)c3)[C@@H](O)[C@@H]2O)cc1`, the concentration for half-maximal inhibition (IC50) in assay [9] was < 316 nM. Broadly, the inhibition in vivo is the change of the read-out against control, counted positive when it falls. Usually inhibition stands for the percentage by which the read-out fell short of the control. Turning to `O=C(Oc1cccc(F)c1OC(=O)c1cccc(O)c1)c1cccc(O)c1`, in assay [10], the “growth inhibition (GI)” value is listed as 41%. Further, in assay [11], the inhibition in vivo at 10 mg/kg/day was 70%. Also, in assay [12], the IC50 is 10000 nM. Moreover, in assay [13], the inhibition stood at 93%.
